Source: patent publication US11085056B2, “Transfection complexes and methods of using the same” (MOLECULAR TRANSFER, INC., priority 2015, dated 2021)

Columns and labels:
Human Fibroblast Cells = assay: Transfection of human fibroblast cells with DOTMA/DOPE/peptide and eGFP plasmid, fluorescent plate reader; format: cell-based; conditions: DOTMA/DOPE 1:1 plus peptide with RRRRRRRRRRRR (SEQ ID NO: 109) at n terminus; EF1Alpha eGFP plasmid; 0.01 mL complex; 42 hours
Method in brief: (§1)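 Cells at 60-70% confluence got DOTMA/DOPE (1:1) mixed with peptides bearing an N-terminal R12 DNA-binding tag, complexed 10 min with EF1α-eGFP plasmid (5 μg/mL in OptiMEM); 0.01 or 0.02 mL complex per well. After 42 h at 37 °C, GFP read by fluorescence plate reader and % transfected cells by microscopy, relative to lipid without peptide.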

HeLa Cells [1] = assay: Transfection of HeLa cells with DOTMA/DOPE/peptide and eGFP plasmid, fluorescent plate reader; format: cell-based; conditions: DOTMA/DOPE 1:1 plus peptide with RRRRRRRRRRRR (SEQ ID NO: 109) at n terminus; EF1Alpha eGFP plasmid; 0.01 mL complex; 42 hours
Method in brief: as §1

HeLa Cells [2] = assay: Transfection of HeLa cells with DOTMA/SEQ ID NO: 72/peptide compared with Lipofectamine 2000; format: cell-based; conditions: fusogenic peptide 0.1 mg/mL
Method in brief: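 HeLa cells at 60–70% confluence received 0.01 mL of complexes of EF1Alpha eGFP plasmid (5 μg/mL in OptiMEM) with DOTMA/DOPE (1:1) plus R12-linked peptide, with fusogenic peptide at 0.1 mg/mL final. GFP read by fluorescence plate reader and microscopy (% cells transfected) after 42 h at 37 °C.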

HuVec Cells = assay: Transfection of HuVec cells with DOTMA/DOPE/peptide and eGFP plasmid, fluorescent plate reader; format: cell-based; conditions: DOTMA/DOPE 1:1 plus peptide with RRRRRRRRRRRR (SEQ ID NO: 109) at n terminus; EF1Alpha eGFP plasmid; 0.01 mL complex; 42 hours
Method in brief: as §1

C2C12 Cells = assay: Transfection of C2C12 cells with DOTMA/DOPE/peptide and eGFP plasmid, fluorescent plate reader; format: cell-based, mouse; conditions: DOTMA/DOPE 1:1 plus peptide with RRRRRRRRRRRR (SEQ ID NO: 109) at n terminus; EF1Alpha eGFP plasmid; 0.02 mL complex; 42 hours
Method in brief: as §1

NL-1 iPS Cells = assay: Transfection of NL-1 iPS cells with DOTMA/DOPE/peptide and eGFP plasmid, fluorescent plate reader; format: cell-based; conditions: DOTMA/DOPE 1:1 plus peptide with RRRRRRRRRRRR (SEQ ID NO: 109) at n terminus; EF1Alpha eGFP plasmid; 42 hours
Jurkat Cells = assay: Transfection of Jurkat cells with DOTMA/DOPE/peptide and eGFP plasmid, fluorescent plate reader; format: cell-based; conditions: DOTMA/DOPE 1:1 plus peptide with RRRRRRRRRRRR (SEQ ID NO: 109) at n terminus; EF1Alpha eGFP plasmid; 0.02 mL complex; 42 hours
Method in brief: as §1

some examined cell types = assay: Transfection expression and % cells transfected over the no peptide control; format: cell-based; conditions: on some examined cell types
Method in brief: as §1

[3] = 0.1 μL of DOTMA/SEQ ID NO: 72/Peptide in well of a 96 well plate
[4] = 0.2 μL of DOTMA/SEQ ID NO: 72/Peptide in well of a 96 well plate
[5] = 0.3 μL of DOTMA/SEQ ID NO: 72/Peptide in well of a 96 well plate
[6] = 0.4 μL of DOTMA/SEQ ID NO: 72/Peptide in well of a 96 well plate

| Substance | RF (Relative Fluorescence) of Transfection of Human Fibroblast Cells (Human Fibroblast Cells) | RF (Relative Fluorescence) of Transfection of HeLa Cells (HeLa Cells [1]) | RF (Relative Fluorescence), DOTMA/SEQ ID NO: 72/Peptide, HeLa Cells (HeLa Cells [2]; [3]) | RF (Relative Fluorescence), DOTMA/SEQ ID NO: 72/Peptide, HeLa Cells (HeLa Cells [2]; [4]) | RF (Relative Fluorescence), DOTMA/SEQ ID NO: 72/Peptide, HeLa Cells (HeLa Cells [2]; [5]) | RF (Relative Fluorescence), DOTMA/SEQ ID NO: 72/Peptide, HeLa Cells (HeLa Cells [2]; [6]) | RF (Relative Fluorescence) of Transfection of HuVec Cells (HuVec Cells) | RF (Relative Fluorescence) of Transfection of C2C12 Cells (C2C12 Cells) | RF (Relative Fluorescence) of Transfection of NL-1 iPS Cells (NL-1 iPS Cells) | RF (Relative Fluorescence) of Transfection of Jurkat Cells (Jurkat Cells) | transfection expression and the % cells transfected over the no peptide control (some examined cell types) |
| --- | --- | --- | --- | --- | --- | --- | --- | --- | --- | --- | --- |
| 450 (TAGSCLRKFSCL; Peptidic transfection agent) [compound 450] | 6996 | 21045 | 11962 | 17346 | 12553 | 10241 | 20911 | 3795 | 29856 | 8779 | increased |
| 326 (RLVSYSGVLFFLK; Peptidic transfection agent) [compound 326] | 3070 | 18946 | 6887 | 9487 | 10330 | 9227 | 4932 | 8553 | 9239 | 3018 | increased |
| 369 (TAIPSCPEGTVPLYS; Peptidic transfection agent) [compound 369] | 7590 | 14444 | 8737 | 16706 | 14880 | 12645 | 6536 | 3322 | 13124 | 11085 | increased |
| 219 (RKRLQVQLSIRT; Peptidic transfection agent) [compound 219] | 7389 | 13721 | 12135 | 13841 | 13531 | 11712 | 6237 | 1346 | 5770 | 10762 | increased |
| 377 (TAGSCLRRFSTM; Peptidic transfection agent) [compound 377] | 6638 | 15091 | 39115 | 40072 | 32914 | 22457 | 9326 | 1710 | 5474 | 6785 | increased |
| 323 (HQQDLGTAGSCLRKFSTMFLF; Peptidic transfection agent) [compound 323] | 4826 | 14067 | 15537 | 16620 | 10839 | 9244 | 12815 | 7698 | 21694 | 2900 | increased |
